# According to patent publication US10543178B2, “Dosage forms and related therapies” (PhilERA New Zealand Limited, priority 2002, dated 2020):
# “And” between values parts separate entries of the source, which are not always exact repeats. Equal entries are not always repeated. “Also recorded” adds a separate entry of the source.
# How the values were obtained:
# [1] = Procedure: Following surgery and a 20 min stabilization period, the experimental protocol was started. […] Control animals received an equivalent volume of saline. Urine was collected in 15 min aliquots throughout the experiment in pre-weighed polyethylene epindorf tubes. At the end of the experiment a terminal blood sample was taken by cardiac puncture and the separated serum stored at −80° C. until future analysis. Hearts were removed through a rapid mid-sternal thoracotomy and processed as described below.
# Mean arterial pressure (MAP), heart rate (HR, derived from the MAP waveform) oxygen saturation (Nonin 8600V Pulse Oximeter, Nonin Medical Inc., Minnesota, USA) and core body temperature, were all continuously monitored throughout the experiment using a PowerLab/16s data acquisition module (AD Instruments, Australia).
# Following surgery and a 20 min stabilization period, the experimental protocol was started. […] Urine was collected throughout the experiment in 15 min aliquots.
# [2] = remark: listed apart in the source
# Excerpt: Methods were as follows. Human studies were approved by institutional ethics and regulatory committees. We measured urinary metal excretion in human males with T2DM or matched non-diabetic controls, baseline information on which is shown in Table 9, in a randomized, double blind, placebo-controlled trial. Males with uncomplicated T2DM (Table 9) underwent 12-d elemental balance studies in a fully residential metabolic unit. All foods and beverages were provided. Total daily intake (method of double diets) and excretion (urinary and fecal) of trace elements (Ca, Mg, Zn, Fe, Cu, Mn, Mo, Cr and Se) were determined (ICP MS).
# [3] = T2DM and controls
# Procedure: Total metal balance studies were performed in a residential metabolic unit. Total fecal outputs were collected daily for 12 days, freeze dried, and analyzed by ICP-MS for content of Cu, Fe, Zn, Ca, Mg, Mn, Cr, […] and Se.
# [4] = 15 days
# Procedure: One sample of the solution was stored in the dark at 4° C. and 21° C. in the dark and a third sample was stored at 21° C. in daylight.
# The Ultraviolet-visible spectrum of the formulation was initially measured at day 0 and then at day 15. 20 μl aliquots of sample solutions were taken at day 15. For each aliquot 960 μl of 50 mM TRIS buffer and 20p aliquot of Copper Nitrate standard (100 mM—Orion Research Inc) were added.
# STZ diabetic rats = experiment: Isolated working heart: cardiac function after 7 weeks oral trientine in drinking water; details: for Heart weight / Left Ventricular wall thickness / Left Ventricular wall thickness per BW / Heart weight (g)/BW (g): trientine weeks 7-13
structure (smiles),measurement,setting,value
"NCCNCCNCCN [trientine, N,N′-Bis(2-aminoethyl)-1,2-ethanediamine]",Time to recovery from blood pressure fall,[1]; 100 mg/kg i.v.,10 min
same,Effect on blood pressure,"[1]; acute i.v. 0.1, 1, 10 and 100 mg/kg",no significant effect
same,Effect of infusion on MAP and HR,[1]; doses below the highest dose,no effect
same,Time for MAP to return to pre-dose levels,[1]; highest dose 100 mg/kg i.v.,≤ 10 min
same,Maximum decrease in MAP (blood pressure fall),"[1]; highest dose 100 mg/kg i.v., 2 min following administration, 100 mg/kg",19±4 mmHg and 19+/−4 mmHg
same,Trientine-evoked urinary Fe excretion,"[2]; T2DM and controls, oral 2.4 g",no corresponding increase
same,Urinary Cu versus placebo,"[2]; both groups (T2DM and controls), day 7, oral 2.4 g",increased
same,Cu excretion from T2DM versus non-diabetic controls following trientine-treatment,"[2]; day 7, 2.4-g oral dose, P<0.05",significantly greater
same,"Effect on fecal outputs of Zn, Fe, Ca, Mg, Mn, Cr, Mb or Se",[3],Neither diabetes nor drug had measurable effects
same,Change in ability to chelate copper on storage,"[4]; 100 mM in deionized water, 4° C. dark, 21° C. dark, 21° C. daylight",no detectable change
same,Effect of room light on copper chelation,"[4]; 100 mM solution, 21° C. in daylight",no detectable detrimental effect
same,Cardiac function versus untreated diabetic controls,"STZ diabetic rats; STZ diabetic rats, oral trientine 7 weeks",improved; also recorded: global improvement in cardiac function
same,Heart weight,STZ diabetic rats; STZ/D7 diabetic rats,1.18 ± 0.24 g
same,Left Ventricular wall thickness,STZ diabetic rats; STZ/D7 diabetic rats,3.79 ± 0.52 mm
same,Left Ventricular wall thickness per BW,STZ diabetic rats; STZ/D7 diabetic rats,0.0127 ± 0.0027 mm/g
same,Heart weight (g)/BW (g),"STZ diabetic rats; STZ/D7 diabetic rats, P < 0.05 vs STZ",0.0041 ± 0.0005 g/g
same,Heart weight,STZ diabetic rats; Sham/D7 non-diabetic rats,1.58 ± 0.05 g
same,Heart weight (g)/BW (g),STZ diabetic rats; Sham/D7 non-diabetic rats,0.0028 ± 0.0001 g/g
same,Left Ventricular wall thickness,STZ diabetic rats; Sham/D7 non-diabetic rats,4.03 ± 0.1 mm
same,Left Ventricular wall thickness per BW,STZ diabetic rats; Sham/D7 non-diabetic rats,0.0072 ± 0.0003 mm/g
same,Blood glucose profile versus untreated comparison group,"STZ diabetic rats; both treated groups, p = ns",no difference
same,Indicators for ventricular contraction and relaxation versus untreated diabetic group,STZ diabetic rats; drug treated diabetic group,significantly improved
same,Trientine treated diabetic hearts still functioning,"STZ diabetic rats; increasing after-load, constant pre-load, when 50% of the untreated diabetic hearts had failed",about 90%
same,Effects on cardiac performance of normal animals,"STZ diabetic rats; non-diabetic rats, drug treatment",no adverse effects
same,Cardiac output,"STZ diabetic rats; pre-load increased, after-load held constant, treated diabetic rats",restored to Sham values
